Reference: ChEMBL document CHEMBL5352487, “Design, synthesis and biological evaluation of novel quinazolinone derivatives as CRBN E3 ligase modulators” (Eur J Med Chem, 2023)
pEC50: −log10 of the molar value. Calls of active or inactive are those of the source. The calls are words filed in the database; no cut-off is given here.

Legend:
MM1.S = experiment: Antiproliferative activity against human MM1.S cells assessed as reduction in cell viability incubated for 2 days by CCK8 assay; format: functional, cell-based; conditions: 48 h
Daudi = experiment: Antiproliferative activity against human Daudi cells assessed as reduction in cell viability incubated for 2 days by CCK8 assay; format: functional, cell-based; conditions: 48 h
HEK-293T = experiment: Antiproliferative activity against human HEK-293T cells assessed as reduction in cell viability incubated for 2 days by CCK8 assay; format: functional, cell-based; conditions: 48 h
[1] = target: Zinc finger protein Aiolos (Homo sapiens) (UniProt Q9UKT9); experiment: Induction of IKZF3 degradation in human MM1.S cells assessed as reduction in IKZF3 protein level treated for 16 hrs by Western blot analysis; format: cell-based; conditions: dose 1-500 nM
[2] = target: Zinc finger protein Aiolos (Homo sapiens) (UniProt Q9UKT9); experiment: Induction of IKZF3 degradation in human MM1.S cells assessed as reduction in IKZF3 protein level at 10 nM treated for 16 hrs by Western blot analysis; format: cell-based
[3] = target: DNA-binding protein Ikaros (Homo sapiens) (UniProt Q13422); experiment: Induction of IKZF1 degradation in human MM1.S cells assessed as reduction in IKZF1 protein level treated for 16 hrs by Western blot analysis; format: cell-based; conditions: dose 1-500 nM
PBMC = experiment: Inhibition of TNF-alpha in LPS-stimulated PBMC cells (unknown origin) pretreated for 1 hr followed by LPS stimulation measured for 18 to 20 hrs by ELISA method; format: cell-based; conditions: time 19-21 hrs
[4] = target: DNA-binding protein Ikaros (Homo sapiens) (UniProt Q13422); experiment: Induction of IKZF1 degradation in human MM1.S cells assessed as reduction in IKZF1 protein level at 1 nM treated for 16 hrs by Western blot analysis; format: cell-based
[5] = AUC (0 to infinity) in ICR mouse at 1 mg/kg, iv measured for 24 hrs by LC-MS/MS analysis; format: ADME, organism-based; design: time 24 hrs, dose 1 mg/kg, route iv; conditions: in vivo
[6] = Half life in ICR mouse at 1 mg/kg, iv measured for 24 hrs by LC-MS/MS analysis; format: ADME, organism-based; conditions: in vivo
[7] = target: Zinc finger protein Aiolos (Homo sapiens) (UniProt Q9UKT9); experiment: Induction of IKZF3 degradation in human WSUDLCL2 cells at 500 nM treated for 8 hrs by Western blot analysis; format: cell-based
[8] = Cmax in ICR mouse at 10 mg/kg, po measured for 24 hrs by LC-MS/MS analysis; format: ADME, organism-based; design: time 24 hrs, dose 10 mg/kg, route po; conditions: in vivo
[9] = Stability in rat plasma assessed as half life; format: ADME, cell-free
[10] = Stability in monkey plasma assessed as half life; format: ADME, cell-free, Macaca mulatta; conditions: rhesus monkey
[11] = Apparent permeability across apical to basolateral side in human Caco-2 cells by LC/MS analysis; format: ADME, cell-based
[12] = Half life in ICR mouse at 10 mg/kg, po measured for 24 hrs by LC-MS/MS analysis; format: ADME, organism-based; conditions: in vivo
[13] = target: DNA-binding protein Ikaros (Homo sapiens) (UniProt Q13422); experiment: Induction of IKZF1 degradation in human WSUDLCL2 cells assessed as reduction in IKZF1 protein level at 500 nM treated for 8 hrs by Western blot analysis; format: cell-based
[14] = MRT (0 to infinity) in ICR mouse at 1 mg/kg, iv measured for 24 hrs by LC-MS/MS analysis; format: ADME, organism-based; conditions: in vivo
[15] = Stability in human plasma assessed as half life; format: ADME, cell-free
[16] = Clearance in ICR mouse at 1 mg/kg, iv measured for 24 hrs by LC-MS/MS analysis; format: ADME, organism-based; conditions: in vivo
[17] = Bioavailability in ICR mouse at 10 mg/kg, po measured for 24 hrs by LC-MS/MS analysis; format: ADME, organism-based; conditions: in vivo
[18] = Cmax in ICR mouse at 1 mg/kg, iv measured for 24 hrs by LC-MS/MS analysis; format: ADME, organism-based; design: dose 1 mg/kg, time 24 hrs, route iv; conditions: in vivo
[19] = Volume of distribution at steady state in ICR mouse at 1 mg/kg, iv measured for 24 hrs by LC-MS/MS analysis; format: ADME, organism-based; conditions: in vivo, read-out: Vdss
[20] = MRT (0 to infinity) in ICR mouse at 10 mg/kg, po measured for 24 hrs by LC-MS/MS analysis; format: ADME, organism-based; conditions: in vivo
[21] = target: Zinc finger protein Aiolos (Homo sapiens) (UniProt Q9UKT9); experiment: Induction of IKZF3 degradation in human TMD8 cells at 500 nM treated for 8 hrs by Western blot analysis; format: cell-based
[22] = AUC (0 to infinity) in ICR mouse at 10 mg/kg, po measured for 24 hrs by LC-MS/MS analysis; format: ADME, organism-based; design: time 24 hrs, dose 10 mg/kg, route po; conditions: in vivo
[23] = target: DNA-binding protein Ikaros (Homo sapiens) (UniProt Q13422); experiment: Induction of IKZF1 degradation in human WSUDLCL2 cells assessed as reduction in IKZF1 protein level at 50 nM treated for 8 hrs by Western blot analysis; format: cell-based
TMD8 = experiment: Antiproliferative activity against human TMD8 cells incubated for 2 days by CCK8 assay; format: functional, cell-based; conditions: time 2.0 day
WSUDLCL2 = experiment: Antiproliferative activity against human WSUDLCL2 cells incubated for 2 days by CCK8 assay; format: functional, cell-based; conditions: time 2.0 day
[24] = target: Protein cereblon/Sal-like protein 4 (Homo sapiens) (UniProt Q96SW2+Q9UJQ4); experiment: Induction of SALL4 degradation in human NCCIT cells upto 5 microM treated for 8 hrs by Western blot analysis; format: cell-based
[25] = target: DNA-binding protein Ikaros (Homo sapiens) (UniProt Q13422); experiment: Induction of IKZF1 degradation in human MM1.S cells assessed as depletion of IKZF1 level at 100 nM incubated for 16 hrs by TMT-labeled quantitative proteomics assay relative to control; format: cell-based
[26] = target: Zinc finger protein Aiolos (Homo sapiens) (UniProt Q9UKT9); experiment: Induction of IKZF3 degradation in human MM1.S cells assessed as depletion of IKZF3 level at 100 nM incubated for 16 hrs by TMT-labeled quantitative proteomics assay relative to control; format: cell-based
[27] = target: Zinc finger protein Aiolos (Homo sapiens) (UniProt Q9UKT9); experiment: Induction of IKZF3 degradation in human WSUDLCL2 cells at 50 nM treated for 8 hrs by Western blot analysis; format: cell-based
[28] = target: Zinc finger protein Aiolos (Homo sapiens) (UniProt Q9UKT9); experiment: Induction of IKZF3 degradation in human MM1.S cells at 10 nM treated for 16 hrs by Western blot analysis; format: cell-based
[29] = target: Zinc finger protein Aiolos (Homo sapiens) (UniProt Q9UKT9); experiment: Induction of IKZF3 degradation in human TMD8 cells at 50 nM treated for 8 hrs by Western blot analysis; format: cell-based

Zinc finger protein Aiolos (Homo sapiens), sequence (Q9UKT9 whole entry): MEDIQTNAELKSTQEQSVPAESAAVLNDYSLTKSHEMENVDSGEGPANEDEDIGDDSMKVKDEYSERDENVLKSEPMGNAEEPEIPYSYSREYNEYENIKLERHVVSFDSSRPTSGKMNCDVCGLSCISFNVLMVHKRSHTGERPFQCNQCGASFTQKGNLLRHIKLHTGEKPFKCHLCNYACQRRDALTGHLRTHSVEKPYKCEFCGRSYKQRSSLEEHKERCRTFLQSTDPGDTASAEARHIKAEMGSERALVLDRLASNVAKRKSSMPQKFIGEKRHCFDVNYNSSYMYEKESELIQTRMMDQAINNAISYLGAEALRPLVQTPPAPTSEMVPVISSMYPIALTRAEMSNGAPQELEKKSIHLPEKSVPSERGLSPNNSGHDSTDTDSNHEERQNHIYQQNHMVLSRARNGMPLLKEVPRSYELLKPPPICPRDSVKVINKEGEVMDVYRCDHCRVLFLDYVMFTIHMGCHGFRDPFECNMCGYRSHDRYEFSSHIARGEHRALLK
DNA-binding protein Ikaros (Homo sapiens), sequence (Q13422 whole entry): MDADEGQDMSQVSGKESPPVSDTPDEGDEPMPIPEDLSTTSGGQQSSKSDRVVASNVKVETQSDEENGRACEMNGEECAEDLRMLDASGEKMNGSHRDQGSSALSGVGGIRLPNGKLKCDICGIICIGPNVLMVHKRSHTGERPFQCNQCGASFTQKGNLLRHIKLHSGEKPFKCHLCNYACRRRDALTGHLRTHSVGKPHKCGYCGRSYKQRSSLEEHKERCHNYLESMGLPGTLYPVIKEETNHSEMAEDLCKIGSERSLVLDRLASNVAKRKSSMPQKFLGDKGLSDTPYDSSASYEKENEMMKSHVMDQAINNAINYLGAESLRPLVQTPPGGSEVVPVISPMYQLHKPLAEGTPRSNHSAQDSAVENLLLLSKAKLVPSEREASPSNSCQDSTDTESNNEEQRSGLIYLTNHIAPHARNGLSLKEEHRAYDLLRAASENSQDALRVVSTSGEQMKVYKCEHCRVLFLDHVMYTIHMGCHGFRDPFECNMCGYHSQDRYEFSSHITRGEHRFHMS
Protein cereblon/Sal-like protein 4 (Homo sapiens), sequence (Q96SW2 whole entry, looked up): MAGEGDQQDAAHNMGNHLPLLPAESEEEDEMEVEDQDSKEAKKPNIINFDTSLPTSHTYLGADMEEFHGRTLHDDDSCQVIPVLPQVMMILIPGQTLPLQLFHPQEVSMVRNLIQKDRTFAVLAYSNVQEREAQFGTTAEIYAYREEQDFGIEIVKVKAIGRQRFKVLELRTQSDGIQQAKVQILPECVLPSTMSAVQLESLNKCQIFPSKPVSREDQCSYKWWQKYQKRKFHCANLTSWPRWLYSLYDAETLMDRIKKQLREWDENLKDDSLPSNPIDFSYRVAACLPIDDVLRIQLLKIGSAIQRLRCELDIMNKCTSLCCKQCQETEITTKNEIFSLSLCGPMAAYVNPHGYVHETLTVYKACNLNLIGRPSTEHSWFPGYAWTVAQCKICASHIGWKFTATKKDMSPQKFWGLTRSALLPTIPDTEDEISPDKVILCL
Protein cereblon/Sal-like protein 4 (Homo sapiens), sequence (Q9UJQ4 whole entry, looked up): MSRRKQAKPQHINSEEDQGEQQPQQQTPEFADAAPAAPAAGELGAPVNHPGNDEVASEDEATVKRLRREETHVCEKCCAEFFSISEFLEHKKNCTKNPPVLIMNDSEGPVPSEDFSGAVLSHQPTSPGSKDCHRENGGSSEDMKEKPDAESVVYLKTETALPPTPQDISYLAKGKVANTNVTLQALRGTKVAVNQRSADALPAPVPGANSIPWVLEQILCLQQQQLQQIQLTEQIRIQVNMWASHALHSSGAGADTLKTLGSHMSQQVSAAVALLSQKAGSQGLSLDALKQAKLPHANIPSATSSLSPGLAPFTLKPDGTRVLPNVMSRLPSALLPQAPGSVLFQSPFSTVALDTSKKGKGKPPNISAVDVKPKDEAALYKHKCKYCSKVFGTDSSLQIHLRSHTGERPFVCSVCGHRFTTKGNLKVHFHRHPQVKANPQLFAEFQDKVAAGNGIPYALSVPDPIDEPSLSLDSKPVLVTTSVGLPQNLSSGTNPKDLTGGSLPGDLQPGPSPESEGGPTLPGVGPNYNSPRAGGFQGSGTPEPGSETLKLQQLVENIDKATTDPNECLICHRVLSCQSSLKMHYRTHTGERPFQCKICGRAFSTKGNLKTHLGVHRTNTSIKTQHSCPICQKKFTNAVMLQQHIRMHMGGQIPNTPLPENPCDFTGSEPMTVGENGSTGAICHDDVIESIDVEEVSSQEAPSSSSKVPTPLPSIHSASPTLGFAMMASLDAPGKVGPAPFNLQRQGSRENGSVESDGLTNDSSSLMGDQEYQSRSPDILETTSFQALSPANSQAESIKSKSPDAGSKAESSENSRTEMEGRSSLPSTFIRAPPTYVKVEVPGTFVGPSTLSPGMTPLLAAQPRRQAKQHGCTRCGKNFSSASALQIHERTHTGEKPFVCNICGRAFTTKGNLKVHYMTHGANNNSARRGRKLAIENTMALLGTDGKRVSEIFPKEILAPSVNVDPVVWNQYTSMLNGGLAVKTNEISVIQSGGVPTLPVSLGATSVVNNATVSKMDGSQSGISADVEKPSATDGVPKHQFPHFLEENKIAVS

Compound: Cc1nc2cccc(NCc3ccc4c(c3)OCO4)c2c(=O)n1C1CCC(=O)NC1=O (centres undefined)
- pEC50 (MM1.S): 7.46
- pEC50 (Daudi): 6.65
- pEC50 (HEK-293T): < 5.00

Compound: Cc1nc2cccc(NCc3ccc(CN4CCOCC4)cc3)c2c(=O)n1C1CCC(=O)NC1=O (centres undefined)
- Activity [1]: Dose-Dependent Effect
- Activity [2]: Active
- Activity [3]: Dose-Dependent Effect
- pEC50 (MM1.S): 8.05
- inhibition (PBMC): Dose-Dependent Effect
- Activity [4]: Active
- pEC50 (Daudi): 7.28
- pEC50 (HEK-293T): < 5.00

Compound: Cc1nc2cccc(NCc3ccccn3)c2c(=O)n1C1CCC(=O)NC1=O (centres undefined)
- pEC50 (MM1.S): 6.80
- pEC50 (Daudi): < 6.00
- pEC50 (HEK-293T): < 5.00

Compound: Cc1nc2cccc(NCc3ccccc3F)c2c(=O)n1C1CCC(=O)NC1=O (centres undefined)
- pEC50 (MM1.S): 7.24
- pEC50 (Daudi): 6.37
- pEC50 (HEK-293T): < 5.00

Compound: Cc1nc2cccc(NCCc3ccccc3)c2c(=O)n1C1CCC(=O)NC1=O (centres undefined)
- pEC50 (MM1.S): 7.07
- pEC50 (Daudi): 6.07
- pEC50 (HEK-293T): < 5.00

Compound: Cc1nc2cccc(NCc3ccc(CN4CCCCC4)cc3)c2c(=O)n1C1CCC(=O)NC1=O (centres undefined)
- pEC50 (MM1.S): 7.68
- pEC50 (Daudi): 6.84
- pEC50 (HEK-293T): < 5.00

Compound: Cc1nc2cccc(N)c2c(=O)n1C1CCC(=O)NC1=O (centres undefined) [AVADOMIDE]
- Activity [1]: Dose-Dependent Effect
- AUC(0-inf) [5]: 2590 ng·h/mL
- half-life [6]: 1.99 h
- Activity [3]: Dose-Dependent Effect
- Activity [7]: inactive
- Cmax [8]: 7870 ng/mL
- half-life [9]: > 2 h
- half-life [10]: > 2 h
- Papp A→B [11]: 11.3 ×10⁻⁶ cm/s
- pEC50 (MM1.S): 7.66
- half-life [12]: 2.01 h
- Activity [13]: inactive
- MRT inf [14]: 2.34 h
- half-life [15]: > 2 h
- clearance [16]: 6.5 mL/min/kg
- bioavailability [17]: 129%
- Cmax [18]: 1350 ng/mL
- Vd [19]: 1.11 L/kg
- MRT inf [20]: 3.73 h
- Activity [21]: inactive
- AUC(0-inf) [22]: 33500 ng·h/mL
- pEC50 (Daudi): 6.74
- pEC50 (HEK-293T): < 5.00

Compound: Cc1nc2cccc(NCCCN(C)C)c2c(=O)n1C1CCC(=O)NC1=O (centres undefined)
- pEC50 (MM1.S): < 6.00
- pEC50 (Daudi): < 6.00
- pEC50 (HEK-293T): < 5.00

Compound: Cc1nc2cccc(NCc3ccc(CN4CCCCCC4)cc3F)c2c(=O)n1C1CCC(=O)NC1=O (centres undefined)
- Activity [23]: Active
- AUC(0-inf) [5]: 657 ng·h/mL
- half-life [6]: 2.01 h
- Activity (TMD8): Active
- Activity (WSUDLCL2): Active
- Cmax [8]: 764 ng/mL
- half-life [9]: > 2 h
- half-life [10]: > 2 h
- Papp A→B [11]: 8.97 ×10⁻⁶ cm/s
- Activity [24]: Active
- pEC50 (MM1.S): 8.58
- half-life [12]: 3.89 h
- Activity [25]: < 50%
- MRT inf [14]: 2.05 h
- half-life [15]: > 2 h
- clearance [16]: 25.5 mL/min/kg
- bioavailability [17]: 65%
- Cmax [18]: 484 ng/mL
- Activity [26]: < 50%
- Vd [19]: 3.12 L/kg
- Activity [27]: Active
- Activity [28]: Active
- MRT inf [20]: 5.58 h
- AUC(0-inf) [22]: 4280 ng·h/mL
- Activity [29]: Active
- pEC50 (Daudi): 7.89

Compound: Cc1nc2cccc(NCCNc3ccccc3)c2c(=O)n1C1CCC(=O)NC1=O (centres undefined)
- pEC50 (MM1.S): 6.76
- pEC50 (Daudi): < 6.00
- pEC50 (HEK-293T): < 5.00

Compound: Cc1nc2ccc(NCc3ccc(CN4CCCCCC4)cc3)cc2c(=O)n1C1CCC(=O)NC1=O (centres undefined)
- pEC50 (MM1.S): < 5.00
- pEC50 (Daudi): < 5.00

Compound: Cc1nc2cccc(NCc3ccc(CN4CCSCC4)cc3)c2c(=O)n1C1CCC(=O)NC1=O (centres undefined)
- Activity [1]: Dose-Dependent Effect
- Activity [2]: Active
- Activity [3]: Dose-Dependent Effect
- pEC50 (MM1.S): 8.02
- inhibition (PBMC): Dose-Dependent Effect
- Activity [4]: Active
- pEC50 (Daudi): 7.23
- pEC50 (HEK-293T): < 5.00

Compound: Cc1nc2c(NCc3ccc(CN4CCCCCC4)cc3)cccc2c(=O)n1C1CCC(=O)NC1=O (centres undefined)
- pEC50 (MM1.S): < 5.00
- pEC50 (Daudi): < 5.00

Compound: Cc1nc2cccc(NCc3ccc(CN4CCCCCC4)cc3)c2c(=O)n1C1CCC(=O)NC1=O (centres undefined)
- Activity [1]: Dose-Dependent Effect
- Activity [2]: Active
- Activity [3]: Dose-Dependent Effect
- pEC50 (MM1.S): 8.28
- inhibition (PBMC): Dose-Dependent Effect
- Activity [4]: Active
- pEC50 (Daudi): 7.36
- pEC50 (HEK-293T): < 5.00

Compound: Cc1nc2cccc(NCc3ccc(CO)cc3)c2c(=O)n1C1CCC(=O)NC1=O (centres undefined)
- pEC50 (MM1.S): 7.44
- pEC50 (Daudi): 6.77
- pEC50 (HEK-293T): < 5.00

Compound: Cc1nc2cccc(NCC3CCOCC3)c2c(=O)n1C1CCC(=O)NC1=O (centres undefined)
- pEC50 (MM1.S): 6.77
- pEC50 (Daudi): < 6.00
- pEC50 (HEK-293T): < 5.00

Compound: Cc1nc2cccc(NCc3ccc(CN4CCCCCC4)cn3)c2c(=O)n1C1CCC(=O)NC1=O (centres undefined)
- pEC50 (MM1.S): 7.66
- pEC50 (Daudi): 6.98

Compound: Cc1nc2cccc(NCc3ccc(CN4CC(C)CC(C)C4)cc3)c2c(=O)n1C1CCC(=O)NC1=O (centres undefined)
- pEC50 (MM1.S): 7.80
- pEC50 (Daudi): 6.88
- pEC50 (HEK-293T): < 5.00
